{"source": "patent US7005430B2", "about": "“Fused purine derivatives” (Kyowa Hakko Kogyo Co., Ltd., priority 1999, dated 2006)", "key": {"dd mice": {"test_system": "dd mice", "assay": "Acute toxicity test (minimum lethal dose)", "assay_type": "in vivo", "details": "po, mortality rate after seven days", "method": "A test compound was orally administered to dd mice [male, body weight: 20±1 g (n=3)]. Mortality rate after seven days was measured to determine minimum lethal dose (MLD)."}, "Wistar male rats": {"test_system": "Wistar male rats", "assay": "Hyperglycemia suppressing action after glucose loading in normal rats", "assay_type": "in vivo", "details": "14 mg/kg po", "method": "Wistar male rats (body weight: about 280 g) were used for the experiment after starvation for 24 hours. A test compound was orally administered to the rats 15 minutes before oral administration of glucose (2 g/kg). Blood was collected from a tail vein before the administration of the test compound and 30, 60, 120 and 180 minutes after the glucose loading, and blood glucose level was measured by using a simplified blood sugar level measuring apparatus."}, "MIN6 cell": {"test_system": "MIN6 cell", "assay": "Insulin secretion promoting activity for cultured β cells (MIN6)", "assay_type": "cell-based", "method": "Culture of the MIN6 cells above and insulin secretion test utilizing the MIN6 cells were performed according to the methods described in Diabetologia, vol. 36, pp. 1139–1145, 1993. The effect of a compound on the insulin secretion in the presence of 14.5 mmol/L glucose was determined by measuring insulin amounts in cell culture supernatants collected as follows. MIN6 cells cultured on a 24-well plate were washed twice by using 1 mL of Buffer A (119 mmol/L sodium chloride, 4.74 mmol/L potassium chloride, 2.54 mmol/L calcium chloride, 1.19 mmol/L magnesium sulfate, 1.19 mmol/L potassium dihydrogenphosphate, 10 mmol/L 2-[4-(2-hydroxyethyl)-1-piperazinyl]ethanesulfonic acid, 0.1% bovine serum albumin, pH 7.3) containing 2 mmol/L glucose, and then were incubated in 1 mL of Buffer A containing 2 mmol/L glucose at 37° C. for 45 minutes. After the incubation, the culture supernatant was changed to Buffer A (0.9 mL) containing a test compound at various concentrations and 2 mmol/L glucose, and the cells were further incubated at 37° C. for 15 minutes. The MIN6 cells were stimulated with glucose by the addition of Buffer A (0.1 mL) containing 127 mmol/L glucose to the culture (final glucose concentration: 14.5 mmol/L). After the stimulation, the cells were further incubated at 37° C. for 45 minutes, and then the culture supernatant was collected.\nSeparately, the effect of a compound on the insulin secretion in the presence of 5 mmol/L glucose was determined by measuring insulin amounts in cell culture supernatants collected as follows. MIN6 cells cultured on a 24-well plate were washed twice by using 1 mL of Buffer A containing 5 mmol/L glucose, and then the culture supernatant was changed to Buffer A (0.9 mL) containing a test compound at various concentrations and 5 mmol/L glucose. Then, the cells were incubated at 37° C. for 45 minutes (final glucose concentration: 5 mmol/L), and the culture supernatant was collected.\nAfter the culture supernatant was diluted with a phosphate buffer containing 1% bovine serum albumin, 0.1% Tween 20, 0.12% disodium ethylenediaminetetraacetate (EDTA) and 0.1% sodium azide, antibody-reactive insulin secreted in the culture supernatant was quantified by enzyme immunoassay or radio immunoassay. The insulin level was indicated as the amount of human insulin (ng/mL). The results are indicated as averages (avg) for 3 to 4 samples with standard erroe values (se)."}, "[1]": {"details": "in the presence of 5 mmol/L of glucose, drug concentration 10 (mmol/L [sic]), None = 51.2"}, "[2]": {"details": "in the presence of 14.5 mmol/L of glucose, drug concentration 1.0 μmol/L, None = 148.4"}}, "note": "Structures can show the parent of a compound that is named as a salt.", "data": [{"smiles": "CCCN1C(=O)N2C[C@@H](Cc3ccncc3)N=C2c2[nH]c(C3CCCC3)nc21", "note": "[Compound 2, (R)-2-Cyclopentyl-7,8-dihydro-8-(4-picolyl)-4-(n-propyl)-1H-imidazo[2,1-i]purin-5(4H)-one D-tartrate]", "values": [{"measurement": "minimum lethal dose (MLD)", "setting": "dd mice", "result": "not less than 500 mg/kg"}, {"measurement": "Plasma Glucose Concentration", "setting": "Wistar male rats; 30 minutes after glucose loading (2 g/kg), Control 169 ± 7.2", "result": "144 ± 6.6", "unit": "mg/dL"}, {"measurement": "Plasma Glucose Concentration", "setting": "Wistar male rats; 60 minutes after glucose loading (2 g/kg), Control 167 ± 8.0", "result": "156 ± 5.7", "unit": "mg/dL"}, {"measurement": "Plasma Glucose Concentration", "setting": "Wistar male rats; 120 minutes after glucose loading (2 g/kg), Control 93 ± 4.5", "result": "90 ± 5.7", "unit": "mg/dL"}, {"measurement": "Plasma Glucose Concentration", "setting": "Wistar male rats; 180 minutes after glucose loading (2 g/kg), Control 83 ± 3.7", "result": "82 ± 4.2", "unit": "mg/dL"}, {"measurement": "Plasma Glucose Concentration", "setting": "Wistar male rats; time 0 (before administration of the test compound), Control 82 ± 3.7", "result": "91 ± 2.1", "unit": "mg/dL"}, {"measurement": "Insulin secretion amount (ng/ml) avg", "setting": "MIN6 cell; [1]", "result": 86.3, "unit": "ng/mL"}, {"measurement": "Insulin secretion amount (ng/ml) avg", "setting": "MIN6 cell; [2]", "result": 203.6, "unit": "ng/mL"}]}, {"smiles": "CSC1=Nc2nc(C(C)(C)C)[nH]c2C2=N[C@H](Cc3ccccc3)CN12", "note": "[Compound 73, (R)-8-Benzyl-2-(tert-butyl)-7,8-dihydro-5-methylthio-1H-imidazo[2,1-i]purine]", "values": [{"measurement": "melting point", "result": "171 to 174", "unit": "°C"}, {"measurement": "Insulin secretion amount (ng/ml) avg", "setting": "MIN6 cell; [1]", "result": 63.3, "unit": "ng/mL"}, {"measurement": "Insulin secretion amount (ng/ml) avg", "setting": "MIN6 cell; [2]", "result": 176.6, "unit": "ng/mL"}]}, {"smiles": "CCCc1nc2c([nH]1)C1=NC(Cc3ccncc3)CN1C(=O)N2CCC", "note": "(stereo not drawn) [Compound 8, 7,8-Dihydro-8-(4-picolyl)-2,4-dipropyl-1H-imidazo[2,1-i]purin-5(4H)-one]", "values": [{"measurement": "melting point", "result": "270 to 274", "unit": "°C"}]}, {"smiles": "CCCN1C(=O)N2CC(Cc3ccccc3)CN=C2c2[nH]c(COCC)nc21.O=C(O)/C=C/C(=O)O", "note": "(stereo not drawn)", "values": [{"measurement": "melting point", "result": "152 to 157", "unit": "°C"}]}, {"smiles": "O=C1N2CC(Cc3ccncc3)N=C2c2[nH]c(C3CCCC3)nc2N1CC1CC1", "note": "(stereo not drawn) (as salt: hydrochloride) [Compound 14, 2-Cyclopentyl-4-cyclopropylmethyl-7,8-dihydro-8-(4-picolyl)-1H-imidazo[2,1-i]purin-5(4H)-one dihydrochloride]", "values": [{"measurement": "melting point", "result": "240 to 241", "unit": "°C"}]}, {"smiles": "CCCN1C(=O)N2CC(Cc3ccncc3)N=C2c2[nH]c(C(C)(C)C)nc21", "note": "(stereo not drawn) [Compound 11, 2-(tert-Butyl)-7,8-dihydro-8-(4-picolyl)-4-(n-propyl)-1H-imidazo[2,1-i]purin-5(4H)-one]", "values": [{"measurement": "melting point", "result": "293 to 295", "unit": "°C"}]}, {"smiles": "CCOC1=Nc2nc(C(C)(C)C)[nH]c2C2=N[C@H](Cc3ccccc3)CN12", "note": "[Compound 70, (R)-8-Benzyl-2-(tert-butyl)-5-ethoxy-7,8-dihydro-1H-imidazo[2,1-i]purine]", "values": [{"measurement": "melting point", "result": "220 to 222", "unit": "°C"}, {"measurement": "Insulin secretion amount (ng/ml) avg", "setting": "MIN6 cell; [1]", "result": 57.0, "unit": "ng/mL"}, {"measurement": "Insulin secretion amount (ng/ml) avg", "setting": "MIN6 cell; [2]", "result": 174.9, "unit": "ng/mL"}]}]}
